Experimental data published in US20240293289A1, “Multifunctional Dental Adhesives and Uses Thereof” (University of Maryland, Baltimore, priority 2023, published 2024).

Biological target: MMP-9 (Homo sapiens, UniProt P14780)
Assay: SENSOLYTE Generic MMP Assay Kit, MMP inhibition
Type: biochemical
Description: For the MMPs inhibition assay, SENSOLYTE Generic MMP Assay Kit Colorimetric was used. The MMP thiopeptide substrate solution was diluted to 0.2 mM with the supplied assay buffer in a 1:50 volume ratio. A 96-well plate was used for the assay using four replicates per group. In each well, 40 μL of MMP-9 (20 ng/well), 10 μL of CHX (1 mg/mL) at serial dilutions, and 50 μL of thiopeptide substrate solution were mixed. […] was measured using a plate reader (SpectraMax M5, Molecular Devices, Sunnyvale, CA, USA) at Ex/Em-490 nm/540 nm with a kinetic mode every 5 min for 60 min (20). The substrate control group was set as a background, where its absorbance was subtracted from other wells. The percentage of MMP inhibition was calculated according to equation 5: […]

Chain of MMP-9 (P14780 94-707): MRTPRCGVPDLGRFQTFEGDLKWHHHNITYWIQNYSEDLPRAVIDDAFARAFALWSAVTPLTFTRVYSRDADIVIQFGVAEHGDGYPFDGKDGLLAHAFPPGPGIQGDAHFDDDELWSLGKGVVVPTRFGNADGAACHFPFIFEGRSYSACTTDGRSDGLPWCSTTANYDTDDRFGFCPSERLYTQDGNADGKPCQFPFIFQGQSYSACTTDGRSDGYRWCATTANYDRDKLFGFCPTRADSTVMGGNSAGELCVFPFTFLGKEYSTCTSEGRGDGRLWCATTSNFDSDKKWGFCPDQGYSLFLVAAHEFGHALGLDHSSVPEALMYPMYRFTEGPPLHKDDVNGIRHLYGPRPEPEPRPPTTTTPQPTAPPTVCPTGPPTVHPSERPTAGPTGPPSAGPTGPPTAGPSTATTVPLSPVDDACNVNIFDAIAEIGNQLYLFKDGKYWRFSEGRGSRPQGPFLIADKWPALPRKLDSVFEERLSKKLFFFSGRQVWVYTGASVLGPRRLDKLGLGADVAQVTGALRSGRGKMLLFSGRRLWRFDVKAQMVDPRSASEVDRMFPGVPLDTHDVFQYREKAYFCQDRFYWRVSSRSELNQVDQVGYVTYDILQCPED

With `[H]/N=C(\N/C(=N/[H])NCCCCCCNC(=N)NC(=N)Nc1ccc(Cl)cc1)Nc1ccc(Cl)cc1` [CHX, Chlorhexidine] the inhibition at 1000 µg/mL (1 mg/mL CHX) was 99.8% and the “inhibition of MMP-9” value (less than 1 mg/mL of CHX) was “substantial inhibition”.
